Laboratory results: patent publication US20260224582A1, “Heterobicyclic amides as inhibitors of CD38” (Cerevance, Inc., priority 2022, published 2026)

Experiments:
Recombinant mouse CD38 = target: T1, Recombinant mouse CD38 (Mus musculus, UniProt P56528); assay: Mouse CD38 hydrolase assay (fluorescence-based, ε-NAD substrate); type: biochemical; details: recombinant mouse CD38 0.4 nM, 12 μM ε-NAD, 30 min preincubation at 25° C.
T1 sequence (P56528 1-304): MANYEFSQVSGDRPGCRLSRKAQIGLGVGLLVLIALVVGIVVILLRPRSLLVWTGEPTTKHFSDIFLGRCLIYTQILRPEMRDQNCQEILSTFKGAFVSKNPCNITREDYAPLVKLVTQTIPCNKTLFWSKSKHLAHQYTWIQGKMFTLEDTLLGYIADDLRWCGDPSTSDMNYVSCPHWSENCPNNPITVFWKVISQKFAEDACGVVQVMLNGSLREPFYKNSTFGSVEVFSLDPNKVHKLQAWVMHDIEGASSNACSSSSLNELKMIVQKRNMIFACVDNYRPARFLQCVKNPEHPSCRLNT
Experimental: The ability of test compounds to inhibit mouse CD38 hydrolase activity was measured in a fluorescence-based assay using non-physiological NAD^+ substrate analogue 1,N^6-etheno NAD^+ (&-NAD). Recombinant mouse CD38 (0.4 nM) was preincubated with test compounds in 384-well black microplates for 30 min at 25° C. in PBS (—Ca^2+/Mg^2+) containing 0.005% BSA (pH 7.4). CD38 hydrolase activity was initiated by addition of 12 μM ε-NAD, which yields the fluorescent product 1,N^6-etheno ADP-ribose. Formation of fluorescent product was followed using ClarioStar Plus (BMG) microplate reader by reading fluorescence (excitation λ=300 nm; emission λ=410 nm) at two time points, one immediately after substrate addition (t=0) and one at 6 min (t=6).
Data was analysed by subtracting the values detected at t=0 from t=6 to correct for variation in baseline fluorescence. Fluorescence values were converted to percent inhibition using the average of high signal (CD38 and ε-NAD) and low signal (CD38 and ε-NAD in the presence of a tool CD38 inhibitor) control wells. IC50 values were determined from a 10-point, halflog concentration response curve with a four-parameter logistic equation.

Recombinant human CD38 = target: T2, Recombinant human CD38 (Homo sapiens, UniProt P28907); assay: Human CD38 hydrolase assay (fluorescence-based, ε-NAD substrate); type: biochemical; details: recombinant human CD38 0.8 nM, 4 μM ε-NAD, 30 min preincubation at 25° C.
T2 sequence (P28907 1-300): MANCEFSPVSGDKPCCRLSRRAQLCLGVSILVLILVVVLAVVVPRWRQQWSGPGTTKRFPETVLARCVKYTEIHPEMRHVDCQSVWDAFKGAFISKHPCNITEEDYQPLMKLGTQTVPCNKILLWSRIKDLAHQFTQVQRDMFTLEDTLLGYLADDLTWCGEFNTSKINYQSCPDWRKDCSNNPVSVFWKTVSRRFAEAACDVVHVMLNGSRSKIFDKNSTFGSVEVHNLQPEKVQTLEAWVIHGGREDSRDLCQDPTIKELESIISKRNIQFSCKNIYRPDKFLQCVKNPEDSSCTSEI
Experimental: The ability of test compounds to inhibit human CD38 hydrolase activity was measured in a fluorescence-based assay using non-physiological NAD^+ substrate analogue 1,N^6-etheno NAD^+ (ε-NAD). Recombinant human CD38 (0.8 nM) was preincubated with test compounds in 384-well black microplates for 30 min at 25° C. in PBS (—Ca^2+/Mg^2+) containing 0.005% BSA (pH 7.4). CD38 hydrolase activity was initiated by addition of 4 μM ε-NAD, which yields the fluorescent product 1,N^6-etheno ADP-ribose. Formation of fluorescent product was followed using ClarioStar Plus (BMG) microplate reader by reading fluorescence (excitation λ=300 nm; emission λ=410 nm) at two time points, one immediately after substrate addition (t=0) and one at 10 min (t=10). Data was analysed by subtracting the values detected at t=0 from t=10 to correct for variation in baseline fluorescence. Fluorescence values were converted to percent inhibition using the average of high signal (CD38 and ε-NAD) and low signal (CD38 and ε-NAD in the presence of a tool CD38 inhibitor) control wells. IC50 values were determined from a 10-point, half log concentration response curve with a four-parameter logistic equation.

| IC50 (Recombinant mouse CD38) [nM] | IC50 (Recombinant human CD38) [nM] | Compound |
| --- | --- | --- |
| ≤ 40 | ≤ 1000 | O=C(N[C@H]1CC[C@@H](N2CCCC2)CC1)c1nc(-n2ccnc2)nn2cccc12 [Example 44, 2-(1H-imidazol-1-yl)-N-((1s,4s)-4-(pyrrolidin-1-yl)cyclohexyl)pyrrolo[2,1-f][1,2,4]triazine-4-carboxamide] |
| ≤ 40 | ≤ 100 | CC1(F)CN([C@H]2CC[C@H](NC(=O)c3cn4ncnc4c(-n4ccnc4)n3)CC2)C1 [Example 46, N-((1r,4r)-4-(3-fluoro-3-methylazetidin-1-yl)cyclohexyl)-8-(1H-imidazol-1-yl)-[1,2,4]triazolo[1,5-a]pyrazine-6-carboxamide] |
| ≤ 40 | ≤ 100 | CN(CC(F)(F)F)[C@H]1CC[C@H](NC(=O)c2cn3ncnc3c(-n3ccnc3)n2)CC1 [Example 47, 8-(1H-imidazol-1-yl)-N-((1r,4r)-4-(methyl (2,2,2-trifluoroethyl)amino)cyclohexyl)-[1,2,4]triazolo[1,5-a]pyrazine-6-carboxamide] |
| ≤ 100 | ≤ 1000 | O=C(NC1CCN(CC(F)(F)F)CC1)c1cn2ncnc2c(-n2ccnc2)n1 [Example 50, 8-(1H-imidazol-1-yl)-N-(1-(2,2,2-trifluoroethyl)piperidin-4-yl)-[1,2,4]triazolo[1,5-a]pyrazine-6-carboxamide] |
| ≤ 40 | ≤ 1000 | O=C(N[C@H]1CC[C@H](N2CCS(=O)(=O)CC2)CC1)c1cn2ncnc2c(-n2ccnc2)n1 [Example 51, N-((1r,4r)-4-(1,1-dioxidothiomorpholino)cyclohexyl)-8-(1H-imidazol-1-yl)-[1,2,4]triazolo[1,5-a]pyrazine-6-carboxamide] |
| ≤ 40 | ≤ 100 | O=C(N[C@H]1CC[C@H](NCC(F)F)CC1)c1cn2ncnc2c(-n2ccnc2)n1 [Example 52, N-((1r,4r)-4-((2,2-difluoroethyl)amino)cyclohexyl)-8-(1H-imidazol-1-yl)-[1,2,4]triazolo[1,5-a]pyrazine-6-carboxamide] |
| ≤ 40 | ≤ 1000 | CC(C)(N[C@H]1CC[C@H](NC(=O)c2cn3ncnc3c(-n3ccnc3)n2)CC1)C(F)(F)F [Example 53, 8-(1H-imidazol-1-yl)-N-((1r,4r)-4-((1,1,1-trifluoro-2-methylpropan-2-yl)amino)cyclohexyl)-[1,2,4]triazolo[1,5-a]pyrazine-6-carboxamide] |
| ≤ 40 | ≤ 1000 | CO[C@@H]1CCN([C@H]2CC[C@@H](NC(=O)c3cn4ncnc4c(-n4ccnc4)n3)CC2)C1 [Example 54, 8-(1H-imidazol-1-yl)-N-((1S,4s)-4-((R)-3-methoxypyrrolidin-1-yl)cyclohexyl)-[1,2,4]triazolo[1,5-a]pyrazine-6-carboxamide] |
| ≤ 40 | ≤ 1000 | O=C(N[C@H]1CC[C@@H](N2CCSCC2)CC1)c1cn2ncnc2c(-n2ccnc2)n1 [Example 55, 8-(1H-imidazol-1-yl)-N-((1s,4s)-4-thiomorpholinocyclohexyl)-[1,2,4]triazolo[1,5-a]pyrazine-6-carboxamide] |
| ≤ 40 | ≤ 100 | O=C(N[C@H]1CC[C@H](N2CC(C(F)(F)F)C2)CC1)c1cn2ncnc2c(-n2ccnc2)n1 [Example 56, 8-(1H-imidazol-1-yl)-N-((1r,4r)-4-(3-(trifluoromethyl)azetidin-1-yl)cyclohexyl)-[1,2,4]triazolo[1,5-a]pyrazine-6-carboxamide] |
| ≤ 40 | ≤ 1000 | CC(F)(F)CN[C@H]1CC[C@H](NC(=O)c2cn3ncnc3c(-n3ccnc3)n2)CC1 [Example 57, N-((1r,4r)-4-((2,2-difluoropropyl)amino)cyclohexyl)-8-(1H-imidazol-1-yl)-[1,2,4]triazolo[1,5-a]pyrazine-6-carboxamide] |
| ≤ 40 | ≤ 100 | O=C(N[C@H]1CC[C@H](N2CC[C@@H](F)C2)CC1)c1nc(-n2ccnc2)nc2ncccc12 [Example 58, N-((1R,4r)-4-((R)-3-fluoropyrrolidin-1-yl)cyclohexyl)-2-(1H-imidazol-1-yl)pyrido[2,3-d]pyrimidine-4-carboxamide] |
| ≤ 40 | ≤ 40 | O=C(N[C@H]1CC[C@H](NCC(F)(F)F)CC1)c1nc(-n2ccnc2)cn2ncnc12 [Example 59, 6-(1H-imidazol-1-yl)-N-((1r,4r)-4-((2,2,2-trifluoroethyl)amino)cyclohexyl)-[1,2,4]triazolo[1,5-a]pyrazine-8-carboxamide] |
| ≤ 40 | ≤ 40 | N-((1r,4r)-4-((2,2-difluoroethyl)amino)cyclohexyl)-2-(1H-imidazol-1-yl)pyrido[2,3-d]pyrimidine-4-carboxamide [Example 33] |
